Measured values published in patent publication US20030186967A1, “Acylresorcinol derivatives are selective vitronectin receptor inhibitors” (American Home Products Corporation, priority 1998, published 2003).

Target: T1, Vitronectin receptor αVβ3 (Homo sapiens, UniProt P05106+P06756)
T1 construct: expressed in transfected cells; host or cells: 512P5 cells (plasma membrane preparation)
Assay: Vitronectin Receptor αVβ3 Binding Assay
Conditions: read-out: VnR (IC50μM)

T1 sequence (P06756 31-889 limits assumed): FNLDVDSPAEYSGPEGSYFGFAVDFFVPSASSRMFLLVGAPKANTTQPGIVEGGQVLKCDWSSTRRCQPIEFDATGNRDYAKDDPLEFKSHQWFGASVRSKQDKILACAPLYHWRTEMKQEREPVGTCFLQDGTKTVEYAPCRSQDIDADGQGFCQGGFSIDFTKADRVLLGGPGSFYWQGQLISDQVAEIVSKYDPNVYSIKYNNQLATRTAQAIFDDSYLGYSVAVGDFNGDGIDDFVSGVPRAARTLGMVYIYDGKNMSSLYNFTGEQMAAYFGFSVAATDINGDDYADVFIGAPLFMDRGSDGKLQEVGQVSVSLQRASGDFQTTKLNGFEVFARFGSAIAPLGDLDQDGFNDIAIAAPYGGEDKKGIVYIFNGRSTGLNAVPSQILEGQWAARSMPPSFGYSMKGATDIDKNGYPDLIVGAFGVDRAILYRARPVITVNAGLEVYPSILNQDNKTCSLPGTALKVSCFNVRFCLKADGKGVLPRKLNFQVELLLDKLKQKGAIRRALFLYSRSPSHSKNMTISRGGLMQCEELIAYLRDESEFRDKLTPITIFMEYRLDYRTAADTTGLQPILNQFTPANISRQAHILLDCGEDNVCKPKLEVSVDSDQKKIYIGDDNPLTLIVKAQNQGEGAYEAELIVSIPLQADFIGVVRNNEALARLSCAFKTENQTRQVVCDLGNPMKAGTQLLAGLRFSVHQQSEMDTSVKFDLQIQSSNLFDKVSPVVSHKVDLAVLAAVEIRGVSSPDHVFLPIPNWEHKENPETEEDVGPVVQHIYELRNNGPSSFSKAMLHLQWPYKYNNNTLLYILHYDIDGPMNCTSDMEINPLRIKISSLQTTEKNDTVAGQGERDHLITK
T1 sequence (P06756 891-1048 partner limits assumed): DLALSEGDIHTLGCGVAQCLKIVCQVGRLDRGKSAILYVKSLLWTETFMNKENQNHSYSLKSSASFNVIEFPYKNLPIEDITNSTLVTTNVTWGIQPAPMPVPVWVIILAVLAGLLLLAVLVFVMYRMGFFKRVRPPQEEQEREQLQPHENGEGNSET
T1 sequence (P05106 27-788): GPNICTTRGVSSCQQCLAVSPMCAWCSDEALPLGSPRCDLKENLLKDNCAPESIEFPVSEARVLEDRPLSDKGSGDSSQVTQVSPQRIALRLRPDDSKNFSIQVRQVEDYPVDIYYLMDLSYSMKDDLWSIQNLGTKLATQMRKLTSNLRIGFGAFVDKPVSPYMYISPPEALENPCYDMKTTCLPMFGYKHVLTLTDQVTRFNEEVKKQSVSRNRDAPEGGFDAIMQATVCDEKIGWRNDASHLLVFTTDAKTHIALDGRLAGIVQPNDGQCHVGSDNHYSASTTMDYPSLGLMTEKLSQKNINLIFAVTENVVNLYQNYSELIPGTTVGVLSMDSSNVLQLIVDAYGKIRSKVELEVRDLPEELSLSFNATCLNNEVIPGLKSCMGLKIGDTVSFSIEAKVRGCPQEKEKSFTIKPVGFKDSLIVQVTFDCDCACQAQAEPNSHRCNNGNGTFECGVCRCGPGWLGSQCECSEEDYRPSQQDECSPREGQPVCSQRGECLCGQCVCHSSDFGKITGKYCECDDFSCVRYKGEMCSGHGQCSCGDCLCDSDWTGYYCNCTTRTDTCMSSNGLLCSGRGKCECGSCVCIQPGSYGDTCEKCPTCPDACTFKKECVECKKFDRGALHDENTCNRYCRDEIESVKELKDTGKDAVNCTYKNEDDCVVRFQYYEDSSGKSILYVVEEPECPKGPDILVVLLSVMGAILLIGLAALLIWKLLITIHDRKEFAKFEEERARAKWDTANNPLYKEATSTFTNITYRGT

| IC50 | SMILES |
| --- | --- |
| > 1 µM | Cc1cc(C(=O)N[C@@H](CNC(=O)c2ccc(OCCNC3=NCCN3)cc2O)C(=O)O)c(C)o1 [Example 137, (2S)-3-({4-[2-(4,5-dihydro-1H-imidazol-2-ylamino)ethoxy]-2-hydroxybenzoyl}-amino)-2-[(2,5-dimethyl-3-furoyl)amino]propanoic acid] |
| > 1 µM | O=C(N[C@@H](CNC(=O)c1ccc(OCCNC2=NCCN2)cc1O)C(=O)O)c1cccc(Cl)c1 [Example 141, (2S)-2-[(3-chlorobenzoyl)amino]-3-({4-[2-(4,5-dihydro-1H-imidazol-2-ylamino)-ethoxy]-2-hydroxybenzoyl}amino)propanoic acid] |
| 1.6 µM | CC(C)(C)COC(=O)N[C@@H](CNC(=O)c1ccc(OCCNC2=NCCCCC2)cc1O)C(=O)O [Example 142, (2S)-3-({2-hydroxy-4-[2-(3,4,5,6-tetrahydro-2H-azepin-7-ylamino)ethoxy]benzoyl}amino)-2-{[(neopentyloxy)carbonyl]amino}propanoic acid] |
| 0.25 µM | CC(C)(C)COC(=O)N[C@@H](CNC(=O)c1ccc(OCCNC(=N)N)cc1O)C(=O)O [Example 156, (2S)-3-{[4-(2-{[amino(imino)methyl]amino}ethoxy)-2-hydroxy-benzoyl]amino}-2-{[(neopentyloxy)carbonyl]amino}propanoic acid] |
| 0.97 µM | CCCOC(=O)N[C@@H](CNC(=O)c1ccc(OCCNC(=N)N)cc1O)C(=O)O [Example 160, (2S)-3-{[4-(2-{[amino(imino)methyl]amino}ethoxy)-2-hydroxybenzoyl]amino}-2-[(propoxycarbonyl)amino]propanoic acid] |
| 0.9 µM | CC(C)OC(=O)N[C@@H](CNC(=O)c1ccc(OCCNC(=N)N)cc1O)C(=O)O [Example 161, (2S)-3-{[4-(2-{[amino(imino)methyl]amino}ethoxy)-2-hydroxybenzoyl]amino}-2-[(isopropoxycarbonyl)amino]propanoic acid] |
| 1.1 µM | C=CCOC(=O)N[C@@H](CNC(=O)c1ccc(OCCNC(=N)N)cc1O)C(=O)O [Example 162] |
| 1.1 µM | C=CCCOC(=O)N[C@@H](CNC(=O)c1ccc(OCCNC(=N)N)cc1O)C(=O)O [Example 163, (2S)-3-{[4-(2-{[amino(imino)methyl]amino}ethoxy)-2-hydroxybenzoyl]amino}-2-{[(but-3-enyloxy)carbonyl]amino}propanoic acid] |
| 0.39 µM | N=C(N)NCCOc1ccc(C(=O)NC[C@H](NC(=O)OCC(Cl)(Cl)Cl)C(=O)O)c(O)c1 [Example 165, (2S)-3-{[4-(2-{[amino(imino)methyl]amino}ethoxy)-2-hydroxybenzoyl]amino}-2-{[(2,2,2-trichloroethoxy)carbonyl]amino}propanoic acid] |
| 4.28 µM | Cc1ccccc1NC(=O)N[C@@H](CNC(=O)c1ccc(OCCNC(=N)N)cc1O)C(=O)O [Example 173, (2S)-3-{[4-(2-{[amino(imino)methyl]amino}ethoxy)-2-hydroxybenzoyl]amino}-2-[(2-toluidinocarbonyl)amino]propanoic acid] |
| 4.87 µM | N=C(N)NCCOc1ccc(C(=O)NC[C@H](NC(=O)Nc2ccccc2-c2ccccc2)C(=O)O)c(O)c1 [Example 177] |
| 19.5 µM | N=C(N)NCCOc1ccc(C(=O)NC[C@H](NC(=O)Nc2ccc(Cl)cc2)C(=O)O)c(O)c1 [Example 180, (2S)-3-{[4-(2-{[amino(imino)methyl]amino}ethoxy)-2-hydroxybenzoyl]amino}-2-{[(4-chloroanilino)carbonyl]amino}propanoic acid] |
| 40.9 µM | CC(=O)c1ccc(NC(=O)N[C@@H](CNC(=O)c2ccc(OCCNC(=N)N)cc2O)C(=O)O)cc1 [Example 182, (2S)-2-{[(4-acetylanilino)carbonyl]amino}-3-{[4-(2-{[amino(imino)methyl]-amino}ethoxy)-2-hydroxybenzoyl]amino}propanoic acid] |
| 17.9 µM | N=C(N)NCCOc1ccc(C(=O)NC[C@H](NC(=O)Nc2cccc3ccccc23)C(=O)O)c(O)c1 [Example 184, (2S)-3-{[4-(2-{[amino(imino)methyl]amino}ethoxy)-2-hydroxybenzoyl]amino}-2-{[(1-naphthylamino)carbonyl]amino}propanoic acid] |
| 4.57 µM | N=C(N)NCCOc1ccc(C(=O)NC[C@H](NC(=O)NCc2ccccc2)C(=O)O)c(O)c1 [Example 185, (2S)-3-{[4-(2-{[amino(imino)methyl]amino}ethoxy)-2-hydroxybenzoyl]amino}-2-{[(benzylamino)carbonyl]amino}propanoic acid] |
| 6.99 µM | N=C(N)NCCOc1ccc(C(=O)NC[C@H](NC(=O)NCCc2ccccc2)C(=O)O)c(O)c1 [Example 186] |

Continued, compound first:

| SMILES | IC50 |
| --- | --- |
| O=C(NC[C@H](NC(=O)c1ccccc1Br)C(=O)O)c1ccc(OCCNC2=NCCN2)cc1O [Example 138] | 0.361 µM |
| O=C(N[C@@H](CNC(=O)c1ccc(OCCNC2=NCCN2)cc1O)C(=O)O)c1ccc(Br)cc1 [Example 139, (2S)-2-[(4-bromobenzoyl)amino]-3-({4-[2-(4,5-dihydro-1H-imidazol-2-ylamino)ethoxy]-2-hydroxybenzoyl}amino)propanoic acid] | > 1 µM |
| Cc1cccc(C(=O)N[C@@H](CNC(=O)c2ccc(OCCNC3=NCCN3)cc2O)C(=O)O)c1C [Example 140, (2S)-3-({4-[2-(4,5-dihydro-1H-imidazol-2-ylamino)ethoxy]-2-hydroxybenzoyl}-amino)-2-[(2,3-dimethylbenzoyl)amino]propanoic acid] | 0.0978 µM |
| O=C(N[C@@H](CNC(=O)c1ccc(OCCNC2=NCCCCC2)cc1O)C(=O)O)OCc1ccccc1 [Example 143, (2S)-2-{[(benzyloxy)carbonyl]amino}-3-({2-hydroxy-4-[2-(3,4,5,6-tetrahydro-2-azepin-7-ylamino)ethoxy]benzoyl}amino)propanoic acid] | 4.79 µM |
| O=C(N[C@@H](CNC(=O)c1ccc(OCCNC2=NCCCCC2)cc1O)C(=O)O)OCC(Cl)(Cl)Cl [Example 153, (2S)-3-({2-hydroxy-4-[2-(3,4,5,6-tetrahydro-2H-azepin-7-ylamino)ethoxy]benzoyl}-amino)-2-{[(2,2,2-trichloroethoxy)carbonyl]amino}propanoic acid] | 2.4 µM |
| COC(=O)N[C@@H](CNC(=O)c1ccc(OCCNC(=N)N)cc1O)C(=O)O [Example 158, (2S)-3-{[4-(2-{[amino(imino)methyl]amino)ethoxy)-2-hydroxybenzoyl]amino}-2-[(methoxycarbonyl)amino]propanoic acid] | 4.6 µM |
| CCOC(=O)N[C@@H](CNC(=O)c1ccc(OCCNC(=N)N)cc1O)C(=O)O [Example 159, (2S)-3-{[4-(2-{[amino(imino)methyl]amino)ethoxy)-2-hydroxybenzoyl]amino}-2-[(ethoxycarbonyl)amino]propanoic acid] | 2 µM |
| CCCCOC(=O)N[C@@H](CNC(=O)c1ccc(OCCNC(=N)N)cc1O)C(=O)O [Example 164, (2S)-3-{[4-(2-{[amino(imino)methyl]amino}ethoxy)-2-hydroxybenzoyl]amino}-2-[(butoxycarbonyl)amino]propanoic acid] | 0.61 µM |
| CCCCCCOC(=O)N[C@@H](CNC(=O)c1ccc(OCCNC(=N)N)cc1O)C(=O)O [Example 166, (2S)-3-{[4-(2-{[amino(imino)methyl]amino}ethoxy)-2-hydroxybenzoyl]amino}-2-{[(hexyloxy)carbonyl]amino}propanoic acid] | 0.8 µM |
| C#CCOC(=O)N[C@@H](CNC(=O)c1ccc(OCCNC(=N)N)cc1O)C(=O)O [Example 167, (2S)-3-{[4-(2-{[amino(imino)methyl]amino}ethoxy)-2-hydroxybenzoyl]amino}-2-{[(prop-2-ynyloxy)carbonyl]amino}propanoic acid] | 2.6 µM |
| COc1ccccc1NC(=O)N[C@@H](CNC(=O)c1ccc(OCCNC(=N)N)cc1O)C(=O)O [Example 174, (2S)-3-{[4-(2-{[amino(imino)methyl]amino}ethoxy)-2-hydroxybenzoyl]amino}-2-{[(2-methoxyanilino)carbonyl]amino}propanoic acid] | 3.89 µM |
| N=C(N)NCCOc1ccc(C(=O)NC[C@H](NC(=O)Nc2ccccc2Cl)C(=O)O)c(O)c1 [Example 175, (2S)-3-{[4-(2-{[amino(imino)methyl]amino}ethoxy)-2-hydroxybenzoyl]amino}-2-{[(2-chloroanilino)carbonyl]amino}propanoic acid] | 3.8 µM |
| N=C(N)NCCOc1ccc(C(=O)NC[C@H](NC(=O)Nc2ccccc2Br)C(=O)O)c(O)c1 [Example 176, (2S)-3-{[4-(2-{[amino(imino)methyl]amino}ethoxy)-2-hydroxybenzoyl]amino}-2-{[(2-bromoanilino)carbonyl]amino}propanoic acid] | 2.14 µM |
| Cc1ccc(NC(=O)N[C@@H](CNC(=O)c2ccc(OCCNC(=N)N)cc2O)C(=O)O)cc1 [Example 178, (2S)-3-{[4-(2-{[amino(imino)methyl]amino}ethoxy)-2-hydroxybenzoyl]amino}-2-[(4-toluidinocarbonyl)amino]propanoic acid] | 3.13 µM |
| N=C(N)NCCOc1ccc(C(=O)NC[C@H](NC(=O)Nc2ccc(OC(F)(F)F)cc2)C(=O)O)c(O)c1 [Example 179, (2S)-3-{[4-(2-{[amino(imino)methyl]amino}ethoxy)-2-hydroxybenzoyl]amino}-2-({[4-(trifluoromethoxy)anilino]carbonyl}amino)propanoic acid] | > 1 µM |
| N=C(N)NCCOc1ccc(C(=O)NC[C@H](NC(=O)Nc2ccc(F)cc2)C(=O)O)c(O)c1 [Example 181, (2S)-3-{[4-(2-{[amino(imino)methyl]amino}ethoxy)-2-hydroxybenzoyl]amino}-2-{[(4-fluoroanilino)carbonyl]amino}propanoic acid] | 19.7 µM |
| N=C(N)NCCOc1ccc(C(=O)NC[C@H](NC(=O)NC2CCCCC2)C(=O)O)c(O)c1 [Example 183, (2S)-3-{[4-(2-{[amino(imino)methyl]amino}ethoxy)-2-hydroxybenzoyl]amino}-2-{[(cyclohexylamino)carbonyl]amino}propanoic acid] | 4.98 µM |
| CCCCCCCCNC(=O)N[C@@H](CNC(=O)c1ccc(OCCNC(=N)N)cc1O)C(=O)O [Example 187, (2S)-3-{[4-(2-{[amino(imino)methyl]amino}ethoxy)-2-hydroxybenzoyl]amino}-2-{[(octylamino)carbonyl]amino}propanoic acid] | 19.5 µM |
